Measured values taken from patent publication US20230364277A1, “E-SELECTIN TARGETING AGENTS” (GLYCOMIMETICS, INC., priority 2020, published 2023).

Tested on: E-selectin expression on HUVEC
Test: Induction of E-selectin expression on HUVEC by TNFα (flow cytometry, anti-E-selectin antibody)
Type: cell-based, human
Conditions: with TNFα stimulation
Method: Subsequent studies were performed to investigate the ability of liposomes containing Compound 3 to recognize and bind to cells under conditions where E-selectin is expressed. For these liposomes with and without Compound 3 were prepared with a fluorescent phospholipid membrane marker (Composition 4 and Composition 3, respectively) allowing for detection by flow cytometry. Liposomes were incubated for 60 min at 37° C. with cultures of human umbilical vein endothelial cells (HUVEC) pretreated in media deficient in TNFα or supplemented with TNFα to induce E-selectin expression. Association of fluorescein labeled liposomes with cell preparations by flow cytometry was then determined.
The flow cytometry-based assay used liposomes containing 0% or 5% Compound 3 (L4 and L5, respectively). Initial studies defined that only TNFα-stimulated HUVEC but not unstimulated HUVEC express E-selectin.

Substance: TNFα
- HUVEC express E-selectin: 88.696%
